pIC50: −log10 of the molar value. A value given as a limit tells only on which side of the number the result lay.

The subject of series [1] is Stage IV–V 3D7 gametocytes. In words: Gametocytocidal ATP-based bioluminescence assay (GC-ATP). Type of series: cell-based, Plasmodium falciparum 3D7. The conditions noted are these: for pIC50: Plasmodium falciparum, 3D7, 48h incubation, read-out: Pf late stage gametocyte (ATP depletion) IC50. As to the method:
The metabolic viability of late stage gametocytes was determined using a gametocyte ATP bioluminescence assay. Stage IV–V 3D7 gametocyte cultures were double-purified by density gradient sedimentation over NycoPrep® followed by magnetic isolation. Then, parasites (50 µl per well containing 12,500 gametocytes) were added to compound pre-dispensed 384-well plates (781091, Greiner) and incubated at 37 °C for 48 h under 5% CO2/3% O2/92% N2. BacTiter-Glo® kit (G8231, Promega) was used to determine the ATP levels of viable parasites according to manufacturer’s instructions. After reagent addition (50 µl per well), luminescence of the plates was measured using a microplate reader (HTS counter Victor, Wallac).

Series [2] concerns P. falciparum female gametocytes. The experiment in a line: Pf DGFA wash-out format, female readout. The series is classed as cell-based. The conditions noted are these: Plasmodium falciparum; 48h preincubation/wash-out.
The test system of series [3] is P. falciparum female gamete formation. The experiment in a line: Pf DGFA add-in format, female readout. The series is classed as cell-based. The conditions noted are these: Plasmodium falciparum; 0h preincubation/add-in. Here is the method: In profiling mode, the Pf DGFA was performed in 96-well plates[23] in wash-out and add-in formats to aid manual manipulation steps. In the wash-out format, gametocytes were incubated for 24 h with test compounds in round-bottomed 96 well plates and then culture medium replaced three times over 6 h, to remove as much of the compound as possible from the well. […] In add-in format, gametocytes were added directly to flat-bottomed 96-well plates containing test compounds, ookinete medium and anti-Pfs25.

The test system of series [4] is P. berghei strain CTRPpGFP early mosquito stage (ookinete) development. In words: P. berghei ookinete development assay (Pb ODA). The conditions noted are these: Plasmodium berghei; 24h incubation. The series is classed as cell-based, Plasmodium berghei. Here is the method: All mouse procedures were performed in accordance with the UK Animals (Scientific Procedures) Act (PPL 70/7185) and approved by the Imperial College Animal Welfare and Ethical Review Body (AWERB). The ability of test compounds to inhibit P. berghei early mosquito stage development was tested in the Ookinete Development Assay[37] with a few exceptions. Anaesthetised 6- to 8-week-old female Tucks Ordinary (TO) mice infected with P. berghei strain CTRPpGFP[38] were rapidly exsanguinated by cardiac puncture and 500 µl of blood diluted in 25 ml of ookinete medium supplemented with 20% foetal bovine serum. Immediately the blood/medium mixture was dispensed by multichannel pipette into 384 well plates containing pre-plated test compounds. 10 µM cycloheximide and DMSO were used as the positive and negative controls, respectively. Plates were stored in the dark in a humidified incubator at 18 °C for 24 h. Ookinete production was imaged by fluorescence microscopy of GFP expression under the ookinete-specific CTRP promoter using a Nikon Ti-E widefield microscope and ×10 objective. Ookinete production was quantified using ICY and percentage inhibition calculated as above with reference to positive and negative controls.

The test system of series [5] is P. berghei-ANKA-GFP-Luc-SMCON sporozoites in HepG2-A16-CD81EGFP cells. The experiment in a line: P. berghei liver stage assay (luciferase sporozoite HepG2 invasion). Type of series: cell-based. The conditions noted are these: Plasmodium berghei, 48h incubation, read-out: Pb Liver invasion assay IC50. As to the method:
(§1) Compound inhibition of P. berghei sporozoite liver infection was assessed in a high-throughput luciferase assay. 1536-well plates (789173-F, Greiner Bio-One) were pre-seeded with 5 µl HepG2-A16-CD81^EGFP cells grown in DMEM (11965–092, Invitrogen) containing 10% FBS (35–011-CV, Corning) and 1× Pen Strep Glutamine (10378–016, Invitrogen). Then, 50 nl of compound in DMSO was dispensed in 12-point serial dilution dose-response format (50 µM to 2.82 × 10^−4 µM), and incubated overnight.A. stephensi mosquitoes infected with P. berghei-ANKA-GFP-Luc-SMCON (Pb-Luc)[41] sporozoites bearing the antifolate-resistance-conferring Toxoplasma gondii dihydrofolate reductase-thymidylate synthase selectable marker, pyR2. After dissection, ~1000 sporozoites in 5 µl screening media (DMEM, 11965–092, Invitrogen; 5% FBS, 35–011-CV, Corning; 5x Pen Strep Glutamine, 10378–016, Invitrogen) were added per well and incubated for 48 h (37 °C, 5% CO2). Bioluminescence was measured using an EnVision microplate reader (Perkin Elmer), following the addition of 2 µl per well of Bright-Glo™ (Promega). Compound toxicity against HepG2 cells was determined in parallel by measuring cellular ATP levels reported by luciferase activity. Methods were similar to the P. berghei liver stage assay, except for the addition of CellTiter-Glo® (Promega) as a detection reagent. DMSO (0.5%) was used as a negative control in both assays, with Atovaquone (5 µM) and Puromycin (10 µM) acting as positive controls in the P. berghei and toxicity assays, respectively.

The next series deals with HepG2 cells. In words: HepG2 toxicity (CellTiter-Glo, parallel to liver stage assay). The conditions noted are these: human, 48 h. The series is classed as cell-based, human. Here is the method: as §1
(In general: In ATP-based viability assays light output follows the ATP content of the culture.)

Series [6] has as its target T1, recombinant luciferase (Photinus pyralis) (Photinus pyralis, UniProt P08659).
T1 construct: purchased Promega E1701
The experiment in a line: Recombinant luciferase inhibition assay. Type of series: biochemical. The conditions noted are these: 1h incubation; read-out: Recombinant luciferase assay IC50. As to the method: A counter-screen to the P. berghei liver stage assay was run against recombinant luciferase (Photinus pyralis) to measure the intrinsic bioluminescence inhibition from select compounds. Briefly, compounds were plated in 12-point serial dose response (50–2.82 × 10^−4 µM) in 1536-well opaque-bottom plates (789173-F, Greiner Bio-One). A 20 pM QuantiLum® Recombinant Luciferase (E1701, Promega) containing solution was made in screening media (DMEM, 11965–092, Invitrogen; 5% FBS, 35–011-CV, Corning; 5x Pen Strep Glutamine, 10378–016, Invitrogen), and 8 µl were added to each well. After 1 h incubation at room temperature, 2 µl of Bright-Glo™ (E2610, Promega) were dispensed per well, and bioluminescence was immediately measured using the EnVision microplate reader (PerkinElmer). DMSO (0.5%) and Luciferase Inhibitor-2 (9.8 µM) (119114, MilliporeSigma) served as negative and positive controls, respectively.

The subject of series [7] is P. falciparum stage V male gametocytes (male gamete formation). In words: P. falciparum dual gamete formation assay (Pf DGFA), male readout (exflagellation), 48 h carry-over format. The series is classed as cell-based, Plasmodium falciparum NF54. The conditions noted are these: Plasmodium falciparum, 24h preincubation/carry-over.
Another series has as its system HepG2 human cells. On the set-up: method as in http://dx.doi.org/10.6019/CHEMBL3507680. The conditions noted are these: ref http://dx.doi.org/10.6019/CHEMBL3507680; cited from earlier work.

T1 sequence (P08659 whole entry): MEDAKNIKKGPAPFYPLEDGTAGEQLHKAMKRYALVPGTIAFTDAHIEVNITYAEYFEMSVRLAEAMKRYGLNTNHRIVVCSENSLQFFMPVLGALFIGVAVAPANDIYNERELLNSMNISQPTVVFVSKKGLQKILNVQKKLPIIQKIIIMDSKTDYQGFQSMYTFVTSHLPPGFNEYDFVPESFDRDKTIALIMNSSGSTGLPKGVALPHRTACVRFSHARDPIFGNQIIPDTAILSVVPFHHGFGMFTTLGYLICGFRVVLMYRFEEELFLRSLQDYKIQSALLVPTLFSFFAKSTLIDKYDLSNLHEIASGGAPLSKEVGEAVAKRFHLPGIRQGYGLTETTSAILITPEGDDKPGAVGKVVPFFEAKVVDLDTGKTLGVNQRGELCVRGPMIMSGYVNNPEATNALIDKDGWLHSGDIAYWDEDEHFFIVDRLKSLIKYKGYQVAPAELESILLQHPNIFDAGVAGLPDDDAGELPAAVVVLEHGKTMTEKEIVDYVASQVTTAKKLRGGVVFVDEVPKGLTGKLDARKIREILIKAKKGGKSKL

Take `CCc1ccc(C2c3nc[nH]c3CCN2Cc2nccn2CC)nc1` (stereo not shown) [DDD01254473]: the pIC50 is 6.28 in [1]; 6.15 in series [2]; below 5.00 in series [3]; below 4.90 in series [4]; below 4.30 in series [5]; below 4.30 in series [6]. The compound also had a negative logarithm of the IC50 (pIC50) in [7] below 4.60. For the same compound, the “activity in the GC-ATP assay” value in [1] (profiling) was “submicromolar”. Further, in the series on HepG2 cells, the “Human HepG2 assay TOX50” value was above 50.0 µM. Further, the “%Inh HepG2 @10uM” value in the series with HepG2 human cells is recorded as 33.1%.
Turning to `CCOc1ccc2ccccc2c1CNCC1CCNCC1.Cl.Cl` [DDD01255740], the pIC50 was below 5.00 in series [1]; 5.78 in [2]; below 5.00 in series [3]; below 4.90 in series [4]; 4.88 in series [5]; below 4.30 in series [6]. In series [7], this compound had a pIC50 of 5.39. Also, the “Human HepG2 assay TOX50” value in the series with HepG2 cells is above 50.0 µM. The “%Inh HepG2 @10uM” value in the series with HepG2 human cells is 9.2%.
In the case of `Cc1ccc(-c2cc(C(=O)NCCC3=CCCCC3)[nH]n2)o1` [DDD01255968], the negative logarithm of the IC50 (pIC50) in series [1] is below 5.00; in [2], below 4.90; in series [3] it was below 5.00; in [4] it was below 4.90; in series [5], 4.75; in series [6], 4.75. Moreover, the pIC50 in series [7] is 5.93. Moreover, in the series on HepG2 cells, the “Human HepG2 assay TOX50” value was above 50.0 µM. For the same compound, the “%Inh HepG2 @10uM” value in the series on HepG2 human cells is -10.6%.

One may read the pIC50 as the negative decadic logarithm of the IC50, by convention in mol/L.

The record behind these values is PMC6143625, “A high throughput screen for next-generation leads targeting malaria parasite transmission” (Nature Communications, 2018).
